Legend:
[1] = test system: postural and kinetic deficit compensation in lesioned cat; conditions: both after IV 28 mg/kg first three days post-lesion and after (IO) 28 mg/kg first 30 days postoperative, vs untreated lesioned animals; cited from earlier work
[2] = test system: unilateral vestibular neurectomy model; assay: Overall functional restoration in animals having undergone unilateral vestibular neurectomy; assay type: in vivo, cat; conditions: present experimental model
Description: The selected experimental model and protocol are recognized in the field of neurosensory research as targeting the study of disorders associated with vertigo crises. The cats undergo a unilateral vestibular neurectomy on the left side. The animals are divided into four groups comprising three treatment groups and one untreated control group, as follows: • control group (five cats), untreated after vestibular lesion but receiving a placebo, • experimental group one (four cats), treated with the racemic compound (acetyl-DL-leucine), • experimental group two (four cats), treated with the first enantiomer (acetyl-L-leucine), • experimental group three (four cats), treated with the second enantiomer (acetyl-D-leucine). Pharmacological treatments for experimental groups one, two and three begin on the day of the lesion and continue until complete recovery (45 days for untreated control animals). In these three lesioned groups, treatment is administered by intravenous (IV) route during the first three days post-lesion and is followed by oral route (OR) treatment until recovery is complete. The doses administered are 30 mg/kg/day IV then 60 mg/kg/day OR for the racemate, and 15 mg/kg/day IV then 30 mg/kg/day OR for each of the two enantiomers. For the oral route, the substance is mixed with food; for the IV route, injection takes place after local anesthesia.

[3] = test system: unilateral vestibular neurectomy model in the cat; assay: Support polygon surface area (postural syndrome), Example 1; assay type: in vivo; conditions: for return of support polygon surface area to normal / support polygon surface area compared to control animals: 15 mg/kg/day IV 3 days then 30 mg/kg/day oral; for support polygon surface area compared to control animals: post-lesion (D isomer: two days post-lesion and evolution)
Procedure: The cats undergo a unilateral vestibular neurectomy on the left side. Surgery is performed using a surgical microscope, under rigorously aseptic conditions, according to a translabyrinthine approach. After incision of the tissues located behind the left auricle of the animal, an opening is made in the tympanic bulla using a diamond drill to give access to the inner ear. The labyrinth cavity is approached by an opening created above the oval window. This precisely-made opening exposes cranial […] which are sectioned at the postganglionic level. The internal auditory meatus is obturated with a cicatrizing gelatin sponge and the surface tissues are restitched. The animals are given analgesics for 48 hours and antibiotics for five days postoperative. The animals are divided into four groups comprising three treatment groups and one untreated control group, as follows: • control group (five cats), untreated after vestibular lesion but receiving a placebo, • experimental group one (four cats), treated with the racemic compound (acetyl-DL-leucine), • experimental group two (four cats), treated with the first enantiomer (acetyl-L-leucine), • experimental group three (four cats), treated with the second enantiomer (acetyl-D-leucine). Pharmacological treatments for experimental groups one, two and three begin on the day of the lesion and continue until complete recovery (45 days for untreated control animals). In these three lesioned groups, treatment is administered by intravenous (IV) route during the first three days post-lesion and is followed by oral route (OR) treatment until recovery is complete. The doses administered are 30 mg/kg/day IV then 60 mg/kg/day OR for the racemate, and 15 mg/kg/day IV then 30 mg/kg/day OR for each of the two enantiomers. For the oral route, the substance is mixed with food; for the IV route, injection takes place after local anesthesia. Support polygon surface area is a good indicator of the degree of postural stability in the cat. In general, it is quite small in the normal animal (roughly 50 cm^2). It increases considerably, by four to eight times, after a unilateral vestibular lesion. This increase in polygon surface area reflects tonic asymmetries in the extensor and flexor muscles of the fore and hind feet and the loss of certain static equilibrium reflexes (Magnus reflexes, for example). Thus, postoperative evolution of this indicator is a good measure of the animal's static equilibrium capacity. In addition, this indicator has prognostic value with respect to dynamic equilibrium performance, as measured by the rotating beam test. Support polygon surface area measurements are taken with the animal in an upright position on all four legs, at rest, using an automated three-dimensional movement analysis system with virtual markers (Codamotion optoelectronic system coupled with a SIMI alignment device). Surface area measurements (in cm^2) taken during the post-lesion period are standardized with respect to pre-lesion values. Thus, each animal acts as its own control (unit equivalent). This method enables direct between-group comparisons and within-group averaging.

[4] = test system: unilateral vestibular neurectomy model in the cat; assay: Post-lesion horizontal spontaneous vestibular nystagmus, Example 1; assay type: in vivo; conditions: for nystagmus disappearing / nystagmus frequency compared to control animals: 15 mg/kg/day IV 3 days then 30 mg/kg/day oral
Procedure: The cats undergo a unilateral vestibular neurectomy on the left side. Surgery is performed using a surgical microscope, under rigorously aseptic conditions, according to a translabyrinthine approach. After incision of the tissues located behind the left auricle of the animal, an opening is made in the tympanic bulla using a diamond drill to give access to the inner ear. The labyrinth cavity is approached by an opening created above the oval window. This precisely-made opening exposes cranial […] which are sectioned at the postganglionic level. The internal auditory meatus is obturated with a cicatrizing gelatin sponge and the surface tissues are restitched. The animals are given analgesics for 48 hours and antibiotics for five days postoperative. The animals are divided into four groups comprising three treatment groups and one untreated control group, as follows: • control group (five cats), untreated after vestibular lesion but receiving a placebo, • experimental group one (four cats), treated with the racemic compound (acetyl-DL-leucine), • experimental group two (four cats), treated with the first enantiomer (acetyl-L-leucine), • experimental group three (four cats), treated with the second enantiomer (acetyl-D-leucine). Pharmacological treatments for experimental groups one, two and three begin on the day of the lesion and continue until complete recovery (45 days for untreated control animals). In these three lesioned groups, treatment is administered by intravenous (IV) route during the first three days post-lesion and is followed by oral route (OR) treatment until recovery is complete. The doses administered are 30 mg/kg/day IV then 60 mg/kg/day OR for the racemate, and 15 mg/kg/day IV then 30 mg/kg/day OR for each of the two enantiomers. For the oral route, the substance is mixed with food; for the IV route, injection takes place after local anesthesia. Recovery of oculomotor functioning is quantified by measuring post-operative regression of spontaneous vestibular nystagmus to light. This nystagmus is recorded in the horizontal plane by a video camera system that records eye movements (SIMI system). Nystagmus frequency is determined by the number of beats per unit time (10 seconds). Recordings are made daily until spontaneous nystagmus disappears.

[5] = test system: unilateral vestibular neurectomy model in the cat; assay: Kinetic equilibrium functioning, rotating beam test, Example 1; assay type: in vivo; conditions: for compensation for kinetic equilibrium compared to control animals / return to maximum performance (MP): rotating beam, 15 mg/kg/day IV 3 days then 30 mg/kg/day oral
Procedure: The cats undergo a unilateral vestibular neurectomy on the left side.
Surgery is performed using a surgical microscope, under rigorously aseptic conditions, according to a translabyrinthine approach. After incision of the tissues located behind the left auricle of the animal, an opening is made in the tympanic bulla using a diamond drill to give access to the inner ear. The labyrinth cavity is approached by an opening created above the oval window. This precisely-made opening exposes cranial […] which are sectioned at the postganglionic level. The internal auditory meatus is obturated with a cicatrizing gelatin sponge and the surface tissues are restitched. The animals are given analgesics for 48 hours and antibiotics for five days postoperative.
The animals are divided into four groups comprising three treatment groups and one untreated control group, as follows: • control group (five cats), untreated after vestibular lesion but receiving a placebo, • experimental group one (four cats), treated with the racemic compound (acetyl-DL-leucine), • experimental group two (four cats), treated with the first enantiomer (acetyl-L-leucine), • experimental group three (four cats), treated with the second enantiomer (acetyl-D-leucine).
Pharmacological treatments for experimental groups one, two and three begin on the day of the lesion and continue until complete recovery (45 days for untreated control animals). In these three lesioned groups, treatment is administered by intravenous (IV) route during the first three days post-lesion and is followed by oral route (OR) treatment until recovery is complete. The doses administered are 30 mg/kg/day IV then 60 mg/kg/day OR for the racemate, and 15 mg/kg/day IV then 30 mg/kg/day OR for each of the two enantiomers. For the oral route, the substance is mixed with food; for the IV route, injection takes place after local anesthesia.
The rotating beam test, as described by Xerri and Lacour (Xerri C, Lacour M: Compensation for postural and kinetic deficits following unilateral vestibular neurectomy in the cat. Role of sensory-motor activity [Compensation des déficits posturaux et cinétiqtues après neurectomie vestibulaire unilatérale chez le chat. Rôle de l'activité sensori-motrice], Acta Otolaryngol (Stockh) (1980) [in French], 90, 414-424) makes it possible to quantify kinetic equilibrium functioning deficits and recovery as a function of postoperative time.
Two compartments are connected by a cylindrical beam 3 m in length and 12 cm in diameter, placed 1.2 m above the floor. The beam can turn around its central axis with linear tangential velocities varying from 0 m/min to 37 m/min. Before the unilateral vestibular lesion (preoperative period), the cats are conditioned to move along this beam. Their maximum performance (MP), which corresponds to the highest beam rotation velocity not causing the animal to fall, is determined for four consecutive tests. In general, eight to 12 daily training sessions of approximately one hour are adequate for the animal to reach its MP. Inter-animal MP variations are relatively small (extreme values recorded: 27 m/min to 37 m/min; mean: 33 m/min; standard deviation: 2.08 m/min). For each cat, MP values obtained following unilateral vestibular neurectomy are expressed as a percentage of MP recorded at the end of training during the preoperative period.

[6] = test system: unilateral vestibular neurectomy in the cat; assay: Compensation of vestibular deficits (support polygon), Example 2; assay type: in vivo; conditions: IV during first three days post-lesion
Procedure: The experiment involves 18 cats from the breeder IFA-CREDO (France). The cats undergo a unilateral vestibular neurectomy of the left side, as in example 1. The animals are divided into three groups comprising one group treated with racemic coumpound (acetyl-DL-leucine) (groups 1) and two treated with acetyl-L-leucine (groups 2 and 3), as follows: • experimental group one (six cats), treated after vestibular lesion with the racemic compound (acetyl-DL-leucine) at 30 mg/kg per day, • experimental group two (six cats), treated after vestibular lesion with the L enantiomer (acetyl-L-leucine) at 15 mg/kg per day, • experimental group three (six cats), treated after vestibular lesion with the L enantiomer (acetyl-L-leucine) at 7.5 mg/kg per day, Pharmacological treatments for experimental groups 1 to 3 begin on the day of the lesion. Treatment is administered by intravenous (IV) route during the first three days post-lesion.

[7] = cat, 15 mg/kg/day IV then 30 mg/kg/day oral
[8] = acetyl-L-leucine used in a 1/2 dose of the racemate

Compound | shortening of the vestibular compensation time constant [1] | improvement / restorative activity compared to placebo [2] | return of support polygon surface area to normal ([3]; cat) | support polygon surface area compared to control animals ([3]; cat) | beneficial effect on support polygon parameter [3, 7] | nystagmus disappearing ([4]; cat) | nystagmus frequency compared to control animals ([4]; cat) | beneficial effect on nystagmus parameter [4, 7] | beneficial effect on kinetic equilibrium parameter [5, 7] | compensation for kinetic equilibrium compared to control animals ([5]; cat) | return to maximum performance (MP) ([5]; cat) | restoration of postural, locomotor and oculomotor functions deteriorated by a vestibular lesion [6] | activity on compensation for postural deficits relative to acetyl-DL-leucine [3, 8] | activity on compensation for ocular nystagmus relative to acetyl-DL-leucine [4, 8] | activity on compensation for kinetic equilibrium relative to acetyl-DL-leucine [5, 8]
CC(=O)NC(CC(C)C)C(=O)O (racemic) [acetyl-DL-leucine] | 50% |  |  |  |  |  |  |  |  |  |  |  |  |  | 
CC(=O)N[C@H](CC(C)C)C(=O)O [acetyl-D-leucine] |  | does not provide any improvement compared to a placebo | 40 days post-lesion | identical to that observed in the control animals | does not have any beneficial effect | eight | identical to that of nystagmus observed in the control animals | does not have any beneficial effect | does not have any beneficial effect | identical to that observed in the control animals | 42 days post-lesion |  |  |  | 
CC(=O)N[C@@H](CC(C)C)C(=O)O [acetyl-L-leucine] |  | restorative activity is only provided by the acetyl-L-leucine isomer | 16 days post-lesion | significantly smaller |  | four | lower |  |  | much more rapid than in the control animals | 18 days post-lesion | efficiently restore | greater than or equal to that of acetyl-DL-leucine | greater than or equal to that of acetyl-DL-leucine | greater than or equal to that of acetyl-DL-leucine

Reference: patent publication US20090318555A1, “Treatment of Vertigo with Acetyl-L-Leucine” (PIERRE FABRE MEDICAMENT, priority 2006, published 2009)
